Measured values taken from patent publication US20260356819A1, “OXOISOINDOLINYL-SUBSTITUTED […] DERIVATIVE AND USE THEREOF” (GLUETACS THERAPEUTICS (SHANGHAI) CO., LTD., priority 2023, published 2026).

Columns and labels:
Type in all cases: cell-based
Conditions in all cases: compounds at 50 nM and 500 nM
[1] = molecular target: T1, WEE1 (Homo sapiens, UniProt P30291+Q96SW2); assay: Western blot degradation of WEE1 in hPBMCs (24 h)
T1 construct: The supernatant was aspirated as the extracted total cell protein; endogenous in cells; host or cells: human peripheral blood mononuclear cells (hPBMCs)
Procedure: (§1) Conventional Western blot assay was performed to evaluate the effects of the compounds of the present disclosure on the expression of target proteins in cells. • (1) Cell Seeding and Protein Harvesting: Human peripheral blood mononuclear cells (hPBMCs) at a density of 1×10^6 cells/mL were thawed according to the PBMC Recovery Protocol (Milecell Biotechnologies Inc, Shanghai). The cells were then treated with the compounds of the present disclosure (including the compounds listed in Table 1, and the Examples 1-498 compounds) at concentrations of 50 nM and 500 nM. Controls included a negative control (DMSO) and a positive control (the commercial immunomodulatory drug lenalidomide), both processed following the identical experimental protocol as the compounds of the present disclosure. After 24 hours of compounds treatment, cells were harvested and lysed in RIPA protein lysate containing protease inhibitors on ice for 30 min, followed by centrifugation. The supernatant was aspirated as the extracted total cell protein. The protein concentration of the supernatant was determined using the conventional BCA (Bicinchoninic Acid) assay. • (2) To the collected supernatant, 5×SDS sample loading buffer was added, followed by denaturation at 95 °C for 5 minutes. The denatured samples were then separated by SDS-PAGE electrophoresis on a polyacrylamide gel. Proteins were transferred to a nitrocellulose membrane (0.45 μm NC membrane), blocked with blocking buffer at room temperature for 1 hour, and subjected to antibody incubation and development procedures according to the antibody manufacturer's instructions (Cell Signaling Technology).
(§2) Half-Maximal Degradation Concentration value (the drug concentration required for degrading proteins by 50%, abbreviated as DC50) reads method: comparing the grayscale values of Western blot bands from drug-treated samples with those from blank DMSO-treated controls, and identifying the drug concentration range at which the grayscale value is half that of the DMSO-treated control bands.
(§3) DC50 values can be calculated using ImageJ software to measure grayscale values of Western blot bands from drug-treated samples. The concentration-response curve is fitted to estimate the drug concentration corresponding to half the grayscale value.
(§4) Target protein remaining (%) refers to the percentage of target protein remaining in cells after treatment with protein degrader compounds.
(§5) Calculation method for target protein remaining (%): Use ImageJ software to measure grayscale values of Western blot bands from drug (protein degrader)-treated samples. The grayscale value of drug-treated bands is divided by that of internal control protein bands, and the resulting quotient is normalized to obtain the relative percentage of remaining target protein after protein degrader treatment.
(§6) Target protein degradation rate (%)=1−target protein remaining (%).

[2] = molecular target: T2, IKZF1 (Homo sapiens, UniProt Q13422+Q96SW2); assay: Western blot degradation of IKZF1 in hPBMCs (24 h)
T2 construct: The supernatant was aspirated as the extracted total cell protein; endogenous in cells; host or cells: human peripheral blood mononuclear cells (hPBMCs)
Procedure: as §1, §2, §3, §4, §5, §6

[3] = molecular target: T3, IKZF2 (Homo sapiens, UniProt Q96SW2+Q9UKS7); assay: Western blot degradation of IKZF2 in hPBMCs (24 h)
T3 construct: The supernatant was aspirated as the extracted total cell protein; endogenous in cells; host or cells: human peripheral blood mononuclear cells (hPBMCs)
Procedure: as §1, §2, §3, §4, §5, §6

[4] = molecular target: T4, IKZF3 (Homo sapiens, UniProt Q96SW2+Q9UKT9); assay: Western blot degradation of IKZF3 in hPBMCs (24 h)
T4 construct: The supernatant was aspirated as the extracted total cell protein; endogenous in cells; host or cells: human peripheral blood mononuclear cells (hPBMCs)
Procedure: as §1, §2, §3, §4, §5, §6

[5] = molecular target: T5, CK1α (Homo sapiens, UniProt P48729+Q96SW2); assay: Western blot degradation of CK1α in hPBMCs (24 h)
T5 construct: The supernatant was aspirated as the extracted total cell protein; endogenous in cells; host or cells: human peripheral blood mononuclear cells (hPBMCs)
Procedure: as §1, §2, §3, §4, §5, §6

[6] = molecular target: T6, GSPT1 (Homo sapiens, UniProt P15170+Q96SW2); assay: Western blot degradation of GSPT1 in hPBMCs (24 h)
T6 construct: The supernatant was aspirated as the extracted total cell protein; endogenous in cells; host or cells: human peripheral blood mononuclear cells (hPBMCs)
Procedure: as §1, §2, §3, §4, §5, §6

T3 sequence (Q9UKS7 whole entry): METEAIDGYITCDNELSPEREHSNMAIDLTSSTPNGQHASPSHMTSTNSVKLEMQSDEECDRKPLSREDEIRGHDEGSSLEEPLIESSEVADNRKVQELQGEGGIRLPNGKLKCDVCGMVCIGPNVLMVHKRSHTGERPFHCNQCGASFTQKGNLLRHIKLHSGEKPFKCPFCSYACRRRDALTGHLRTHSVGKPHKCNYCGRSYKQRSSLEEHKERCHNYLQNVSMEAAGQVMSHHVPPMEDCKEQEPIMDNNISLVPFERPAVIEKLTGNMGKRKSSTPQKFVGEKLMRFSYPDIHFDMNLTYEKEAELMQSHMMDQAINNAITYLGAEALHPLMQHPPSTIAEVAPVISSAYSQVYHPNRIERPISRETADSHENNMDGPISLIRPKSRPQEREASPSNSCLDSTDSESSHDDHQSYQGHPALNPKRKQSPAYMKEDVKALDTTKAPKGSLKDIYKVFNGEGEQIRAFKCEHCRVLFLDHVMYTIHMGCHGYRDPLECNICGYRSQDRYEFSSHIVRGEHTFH
T3 sequence (Q96SW2 whole entry): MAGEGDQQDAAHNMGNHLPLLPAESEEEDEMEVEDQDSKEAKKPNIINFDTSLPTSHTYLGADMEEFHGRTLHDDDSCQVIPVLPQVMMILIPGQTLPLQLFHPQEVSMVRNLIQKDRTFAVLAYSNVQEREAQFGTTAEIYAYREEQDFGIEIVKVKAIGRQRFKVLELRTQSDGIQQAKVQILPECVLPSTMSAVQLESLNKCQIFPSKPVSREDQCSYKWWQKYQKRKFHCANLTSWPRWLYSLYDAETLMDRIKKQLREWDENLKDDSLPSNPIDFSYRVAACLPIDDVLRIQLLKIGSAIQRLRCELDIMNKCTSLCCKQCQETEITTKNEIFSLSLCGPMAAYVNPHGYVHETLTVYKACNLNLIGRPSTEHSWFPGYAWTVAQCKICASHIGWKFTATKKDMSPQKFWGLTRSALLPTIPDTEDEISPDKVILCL
T3 sequence (Q16531 whole entry partner): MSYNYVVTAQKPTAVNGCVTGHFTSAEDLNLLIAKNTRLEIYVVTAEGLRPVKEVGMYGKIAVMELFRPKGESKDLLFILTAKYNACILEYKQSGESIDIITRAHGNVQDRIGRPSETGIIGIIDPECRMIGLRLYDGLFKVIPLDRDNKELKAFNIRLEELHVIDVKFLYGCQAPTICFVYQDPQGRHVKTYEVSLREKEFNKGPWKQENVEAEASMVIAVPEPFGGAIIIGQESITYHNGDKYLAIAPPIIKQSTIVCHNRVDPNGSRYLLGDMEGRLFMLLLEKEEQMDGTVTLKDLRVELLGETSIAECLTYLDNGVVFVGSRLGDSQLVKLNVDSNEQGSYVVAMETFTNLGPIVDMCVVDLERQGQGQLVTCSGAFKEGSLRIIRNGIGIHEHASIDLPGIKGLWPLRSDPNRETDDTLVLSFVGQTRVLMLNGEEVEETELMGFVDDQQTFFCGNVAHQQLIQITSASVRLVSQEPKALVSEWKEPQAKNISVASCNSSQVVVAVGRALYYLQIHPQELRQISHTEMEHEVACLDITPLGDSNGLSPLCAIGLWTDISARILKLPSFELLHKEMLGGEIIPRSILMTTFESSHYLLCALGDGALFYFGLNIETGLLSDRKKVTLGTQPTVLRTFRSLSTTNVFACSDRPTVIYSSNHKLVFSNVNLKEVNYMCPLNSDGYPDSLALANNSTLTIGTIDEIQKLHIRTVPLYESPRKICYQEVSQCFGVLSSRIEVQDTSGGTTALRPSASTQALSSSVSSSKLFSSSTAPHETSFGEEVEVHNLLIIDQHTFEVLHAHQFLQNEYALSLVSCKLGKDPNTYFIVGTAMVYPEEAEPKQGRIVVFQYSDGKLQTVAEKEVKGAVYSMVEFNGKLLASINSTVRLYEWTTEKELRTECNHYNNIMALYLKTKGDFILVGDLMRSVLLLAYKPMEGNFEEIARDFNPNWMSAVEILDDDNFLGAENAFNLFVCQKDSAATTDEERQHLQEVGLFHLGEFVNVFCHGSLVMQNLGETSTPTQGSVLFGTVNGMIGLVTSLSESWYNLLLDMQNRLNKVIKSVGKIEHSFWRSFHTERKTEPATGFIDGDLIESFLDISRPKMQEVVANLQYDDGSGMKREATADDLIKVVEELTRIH
T4 sequence (Q9UKT9 whole entry): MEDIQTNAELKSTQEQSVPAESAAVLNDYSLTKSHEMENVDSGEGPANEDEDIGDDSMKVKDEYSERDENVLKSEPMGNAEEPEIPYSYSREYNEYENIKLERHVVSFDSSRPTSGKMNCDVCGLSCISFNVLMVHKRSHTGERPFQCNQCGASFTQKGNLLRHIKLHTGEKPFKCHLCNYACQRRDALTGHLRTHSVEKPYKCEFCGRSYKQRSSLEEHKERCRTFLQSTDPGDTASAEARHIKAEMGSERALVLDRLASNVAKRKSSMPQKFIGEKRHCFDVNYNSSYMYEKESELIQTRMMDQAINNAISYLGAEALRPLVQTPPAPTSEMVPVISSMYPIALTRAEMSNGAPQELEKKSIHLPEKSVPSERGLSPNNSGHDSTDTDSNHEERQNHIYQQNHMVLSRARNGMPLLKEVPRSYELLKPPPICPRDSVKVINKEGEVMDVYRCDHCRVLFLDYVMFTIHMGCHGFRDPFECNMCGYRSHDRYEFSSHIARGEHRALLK
T4 sequence (Q96SW2 whole entry): as the sequence (Q96SW2 whole entry) above
T4 sequence (Q16531 whole entry partner): as the sequence (Q16531 whole entry partner) above
T5 sequence (P48729 whole entry): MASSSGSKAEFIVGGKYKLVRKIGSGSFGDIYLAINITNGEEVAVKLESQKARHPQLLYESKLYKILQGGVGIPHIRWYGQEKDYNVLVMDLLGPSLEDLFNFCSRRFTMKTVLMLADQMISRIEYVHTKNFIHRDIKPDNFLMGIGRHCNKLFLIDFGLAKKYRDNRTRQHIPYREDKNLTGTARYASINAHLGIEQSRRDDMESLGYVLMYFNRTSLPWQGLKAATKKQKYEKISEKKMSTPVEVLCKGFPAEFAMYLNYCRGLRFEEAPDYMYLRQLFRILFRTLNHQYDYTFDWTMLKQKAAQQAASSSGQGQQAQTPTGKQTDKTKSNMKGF
T5 sequence (Q96SW2 whole entry): as the sequence (Q96SW2 whole entry) above
T5 sequence (Q16531 whole entry partner): as the sequence (Q16531 whole entry partner) above
T6 sequence (P15170 whole entry): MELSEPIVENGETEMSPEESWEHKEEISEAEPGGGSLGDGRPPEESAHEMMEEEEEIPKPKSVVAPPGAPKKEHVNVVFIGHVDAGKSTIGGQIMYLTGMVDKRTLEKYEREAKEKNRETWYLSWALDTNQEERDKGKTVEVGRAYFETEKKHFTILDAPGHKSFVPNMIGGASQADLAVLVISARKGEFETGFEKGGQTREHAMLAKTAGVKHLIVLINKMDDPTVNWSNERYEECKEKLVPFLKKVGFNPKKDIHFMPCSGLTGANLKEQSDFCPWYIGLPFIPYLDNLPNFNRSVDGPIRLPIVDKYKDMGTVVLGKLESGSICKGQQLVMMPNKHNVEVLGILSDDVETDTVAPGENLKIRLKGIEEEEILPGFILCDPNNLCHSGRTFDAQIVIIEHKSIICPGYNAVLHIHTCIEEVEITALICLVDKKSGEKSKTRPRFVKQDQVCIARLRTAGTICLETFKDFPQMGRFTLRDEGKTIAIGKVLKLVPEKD
T6 sequence (Q96SW2 whole entry): as the sequence (Q96SW2 whole entry) above
T6 sequence (Q16531 whole entry partner): as the sequence (Q16531 whole entry partner) above
T1 sequence (P30291 whole entry): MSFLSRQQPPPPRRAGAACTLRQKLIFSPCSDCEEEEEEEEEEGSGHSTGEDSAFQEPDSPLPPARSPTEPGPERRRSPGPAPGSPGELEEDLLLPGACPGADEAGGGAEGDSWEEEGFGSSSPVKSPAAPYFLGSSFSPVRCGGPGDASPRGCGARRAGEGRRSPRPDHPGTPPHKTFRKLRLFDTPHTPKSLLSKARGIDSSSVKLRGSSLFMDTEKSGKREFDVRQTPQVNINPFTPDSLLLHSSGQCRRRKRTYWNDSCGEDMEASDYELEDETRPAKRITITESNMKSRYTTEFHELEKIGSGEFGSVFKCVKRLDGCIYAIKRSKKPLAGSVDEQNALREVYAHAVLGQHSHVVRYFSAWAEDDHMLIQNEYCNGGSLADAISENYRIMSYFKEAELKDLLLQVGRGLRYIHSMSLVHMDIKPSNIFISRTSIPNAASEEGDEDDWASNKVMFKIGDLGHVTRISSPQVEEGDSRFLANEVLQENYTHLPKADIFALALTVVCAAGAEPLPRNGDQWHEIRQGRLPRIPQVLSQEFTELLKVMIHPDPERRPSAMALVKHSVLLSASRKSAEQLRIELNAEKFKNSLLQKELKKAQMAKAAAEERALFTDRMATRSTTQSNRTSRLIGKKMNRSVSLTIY
T1 sequence (Q96SW2 whole entry): as the sequence (Q96SW2 whole entry) above
T1 sequence (Q16531 whole entry partner): as the sequence (Q16531 whole entry partner) above

O=C1CCN(N2Cc3cc(CN4CCN(C(c5ccc(Cl)cc5)c5ccc(Cl)cc5)CC4)ccc3C2=O)C(=O)N1 [GT-04895, 1-(5-((4-(bis(4-chlorophenyl)methyl)piperazin-1-yl)methyl)-1-oxoisoindolin-2-yl)dihydropyrimidine-2,4(1H,3H)-dione]
WEE1 substrate protein remaining % [1]: B (80%< substrate protein remaining % ≤100%) | IKZF1 substrate protein remaining % [2]: A (0% ≤ substrate protein remaining % ≤80%) | IKZF2 substrate protein remaining % [3]: A (0% ≤ substrate protein remaining % ≤80%) | IKZF3 substrate protein remaining % [4]: B (80%< substrate protein remaining % ≤100%) | CK1α substrate protein remaining % [5]: B (80%< substrate protein remaining % ≤100%) | GSPT1 substrate protein remaining % [6]: A (0% ≤ substrate protein remaining % ≤80%)

O=C1CCN(N2Cc3cc(CN4C[C@@H]5C[C@H]4CN5C(c4ccccc4)c4ccccc4)ccc3C2=O)C(=O)N1 [GT-04938, 1-(5-(((1S,4S)-5-benzhydryl-2,5-diazabicyclo[2.2.1]heptan-2-yl)methyl)-1-oxoisoindolin-2-yl)dihydropyrimidine-2,4(1H,3H)-dione]
WEE1 substrate protein remaining % [1]: A (0% ≤ substrate protein remaining % ≤80%) | IKZF1 substrate protein remaining % [2]: B (80%< substrate protein remaining % ≤100%) | IKZF2 substrate protein remaining % [3]: A (0% ≤ substrate protein remaining % ≤80%) | IKZF3 substrate protein remaining % [4]: B (80%< substrate protein remaining % ≤100%) | CK1α substrate protein remaining % [5]: B (80%< substrate protein remaining % ≤100%) | GSPT1 substrate protein remaining % [6]: A (0% ≤ substrate protein remaining % ≤80%)

O=C1CCN(N2Cc3cc(CN4CCN(c5cccs5)CC4)ccc3C2=O)C(=O)N1 [GT-05073, 1-(1-oxo-5-((4-(thiophen-2-yl)piperazin-1-yl)methyl)isoindolin-2-yl)dihydropyrimidine-2,4(1H,3H)-dione]
WEE1 substrate protein remaining % [1]: B (80%< substrate protein remaining % ≤100%) | IKZF1 substrate protein remaining % [2]: B (80%< substrate protein remaining % ≤100%) | IKZF2 substrate protein remaining % [3]: B (80%< substrate protein remaining % ≤100%) | IKZF3 substrate protein remaining % [4]: A (0% ≤ substrate protein remaining % ≤80%) | CK1α substrate protein remaining % [5]: B (80%< substrate protein remaining % ≤100%) | GSPT1 substrate protein remaining % [6]: B (80%< substrate protein remaining % ≤100%)

Cc1ccc(N2CCN(Cc3ccc4c(c3)CN(N3CCC(=O)NC3=O)C4=O)CC2)s1 [GT-05083, 1-(5-((4-(5-methylthiophen-2-yl)piperazin-1-yl)methyl)-1-oxoisoindolin-2-yl)dihydropyrimidine-2,4(1H,3H)-dione]
WEE1 substrate protein remaining % [1]: B (80%< substrate protein remaining % ≤100%) | IKZF1 substrate protein remaining % [2]: B (80%< substrate protein remaining % ≤100%) | IKZF2 substrate protein remaining % [3]: A (0% ≤ substrate protein remaining % ≤80%) | IKZF3 substrate protein remaining % [4]: B (80%< substrate protein remaining % ≤100%) | CK1α substrate protein remaining % [5]: B (80%< substrate protein remaining % ≤100%) | GSPT1 substrate protein remaining % [6]: B (80%< substrate protein remaining % ≤100%)

Cc1ccsc1N1CCN(Cc2ccc3c(c2)CN(N2CCC(=O)NC2=O)C3=O)CC1 [GT-05084, 1-(5-((4-(3-methylthiophen-2-yl)piperazin-1-yl)methyl)-1-oxoisoindolin-2-yl)dihydropyrimidine-2,4(1H,3H)-dione]
WEE1 substrate protein remaining % [1]: B (80%< substrate protein remaining % ≤100%) | IKZF1 substrate protein remaining % [2]: B (80%< substrate protein remaining % ≤100%) | IKZF2 substrate protein remaining % [3]: A (0% ≤ substrate protein remaining % ≤80%) | IKZF3 substrate protein remaining % [4]: B (80%< substrate protein remaining % ≤100%) | CK1α substrate protein remaining % [5]: B (80%< substrate protein remaining % ≤100%) | GSPT1 substrate protein remaining % [6]: B (80%< substrate protein remaining % ≤100%)

Cc1cc(N2CCN(Cc3ccc4c(c3)CN(N3CCC(=O)NC3=O)C4=O)CC2)cs1 [GT-05087, 1-(5-((4-(5-methylthiophen-3-yl)piperazin-1-yl)methyl)-1-oxoisoindolin-2-yl)dihydropyrimidine-2,4(1H,3H)-dione]
WEE1 substrate protein remaining % [1]: B (80%< substrate protein remaining % ≤100%) | IKZF1 substrate protein remaining % [2]: B (80%< substrate protein remaining % ≤100%) | IKZF2 substrate protein remaining % [3]: B (80%< substrate protein remaining % ≤100%) | IKZF3 substrate protein remaining % [4]: B (80%< substrate protein remaining % ≤100%) | CK1α substrate protein remaining % [5]: B (80%< substrate protein remaining % ≤100%) | GSPT1 substrate protein remaining % [6]: A (0% ≤ substrate protein remaining % ≤80%)

Cc1cccc(N2CCN(Cc3ccc4c(c3)CN(N3CCC(=O)NC3=O)C4=O)CC2)n1 [GT-05125, 1-(5-((4-(6-methylpyridin-2-yl)piperazin-1-yl)methyl)-1-oxoisoindolin-2-yl)dihydropyrimidine-2,4(1H,3H)-dione]
WEE1 substrate protein remaining % [1]: A (0% ≤ substrate protein remaining % ≤80%) | IKZF1 substrate protein remaining % [2]: A (0% ≤ substrate protein remaining % ≤80%) | IKZF2 substrate protein remaining % [3]: B (80%< substrate protein remaining % ≤100%) | IKZF3 substrate protein remaining % [4]: A (0% ≤ substrate protein remaining % ≤80%) | CK1α substrate protein remaining % [5]: A (0% ≤ substrate protein remaining % ≤80%) | GSPT1 substrate protein remaining % [6]: A (0% ≤ substrate protein remaining % ≤80%)

O=C1CCN(N2Cc3cc(CN4CCN(c5cc(Cl)ccn5)CC4)ccc3C2=O)C(=O)N1 [GT-05128, 1-(5-((4-(4-chloropyridin-2-yl)piperazin-1-yl)methyl)-1-oxoisoindolin-2-yl)dihydropyrimidine-2,4(1H,3H)-dione]
WEE1 substrate protein remaining % [1]: A (0% ≤ substrate protein remaining % ≤80%) | IKZF1 substrate protein remaining % [2]: A (0% ≤ substrate protein remaining % ≤80%) | IKZF2 substrate protein remaining % [3]: A (0% ≤ substrate protein remaining % ≤80%) | IKZF3 substrate protein remaining % [4]: A (0% ≤ substrate protein remaining % ≤80%) | CK1α substrate protein remaining % [5]: A (0% ≤ substrate protein remaining % ≤80%) | GSPT1 substrate protein remaining % [6]: A (0% ≤ substrate protein remaining % ≤80%)

O=C1CCN(N2Cc3cc(CN4CCN(c5ncccc5F)CC4)ccc3C2=O)C(=O)N1 [GT-05129, 1-(5-((4-(3-fluoropyridin-2-yl)piperazin-1-yl)methyl)-1-oxoisoindolin-2-yl)dihydropyrimidine-2,4(1H,3H)-dione]
WEE1 substrate protein remaining % [1]: A (0% ≤ substrate protein remaining % ≤80%) | IKZF1 substrate protein remaining % [2]: A (0% ≤ substrate protein remaining % ≤80%) | IKZF2 substrate protein remaining % [3]: A (0% ≤ substrate protein remaining % ≤80%) | IKZF3 substrate protein remaining % [4]: A (0% ≤ substrate protein remaining % ≤80%) | CK1α substrate protein remaining % [5]: A (0% ≤ substrate protein remaining % ≤80%) | GSPT1 substrate protein remaining % [6]: A (0% ≤ substrate protein remaining % ≤80%)

O=C1CCN(N2Cc3cc(CN4CCN(c5cccc(F)n5)CC4)ccc3C2=O)C(=O)N1 [GT-05130, 1-(5-((4-(6-fluoropyridin-2-yl)piperazin-1-yl)methyl)-1-oxoisoindolin-2-yl)dihydropyrimidine-2,4(1H,3H)-dione]
WEE1 substrate protein remaining % [1]: A (0% ≤ substrate protein remaining % ≤80%) | IKZF1 substrate protein remaining % [2]: A (0% ≤ substrate protein remaining % ≤80%) | IKZF2 substrate protein remaining % [3]: A (0% ≤ substrate protein remaining % ≤80%) | IKZF3 substrate protein remaining % [4]: A (0% ≤ substrate protein remaining % ≤80%) | CK1α substrate protein remaining % [5]: A (0% ≤ substrate protein remaining % ≤80%) | GSPT1 substrate protein remaining % [6]: A (0% ≤ substrate protein remaining % ≤80%)
